In PubChem BioAssay (NCI):
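Protocol summary: plate cells (96-well), add compound at 5 concentrations, incubate 48 h, interpolate endpoints linearly. TGI: total growth inhibition.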

Legend:
Experiment in all cases: DTP human tumour cell line panel, 48 h
[1] = test system: SN12C renal
[2] = test system: HOP-92 NSCLC
[3] = test system: SR leukemia
[4] = test system: HCT-15 colon
[5] = test system: UACC-62 melanoma
[6] = test system: NCI-H23 lung
[7] = test system: KM12 colon
[8] = test system: MALME-3M melanoma
[9] = test system: A549 NSCLC
[10] = test system: A498 renal
[11] = test system: NCI/ADR-RES ovarian
[12] = test system: T-47D breast
[13] = test system: IGROV1 ovarian
[14] = test system: EKVX NSCLC
[15] = test system: MDA-N
[16] = test system: PC-3 prostate
[17] = test system: LOX IMVI melanoma
[18] = test system: MDA-MB-231 breast
[19] = test system: U251 CNS
[20] = test system: DU-145 prostate
[21] = test system: MCF7 breast
[22] = test system: HT29 colon
[23] = test system: SF-539 CNS
[24] = test system: SK-OV-3 ovarian
[25] = test system: UACC-257 melanoma
[26] = test system: 786-0 renal
[27] = test system: HCC-2998 colon
[28] = test system: COLO 205 colon
[29] = test system: HCT-116 colon
[30] = test system: OVCAR-8 ovarian
[31] = test system: OVCAR-4 ovarian
[32] = test system: TK-10 renal
[33] = test system: HOP-62 NSCLC
[34] = test system: BT-549 breast
[35] = test system: OVCAR-5 ovarian
[36] = test system: K-562 leukemia
[37] = test system: ACHN renal
[38] = test system: CAKI-1 renal
[39] = test system: SK-MEL-2 melanoma
[40] = test system: NCI-H522 lung
[41] = test system: SF-268 CNS
[42] = test system: SW-620 colon
[43] = test system: CCRF-CEM leukemia
[44] = test system: MDA-MB-435
[45] = test system: UO-31 renal
[46] = test system: SK-MEL-5 melanoma
[47] = test system: RPMI-8226 leukemia
[48] = test system: OVCAR-3 ovarian
[49] = test system: M14 melanoma
[50] = test system: NCI-H226 lung
[51] = test system: SF-295 CNS
[52] = test system: MOLT-4 leukemia
[53] = test system: NCI-H460 lung
[54] = test system: HS 578T breast
[55] = test system: RXF 393 renal
[56] = test system: HL-60(TB) leukemia
[57] = test system: SK-MEL-28 melanoma
[58] = test system: SNB-75 CNS
[59] = test system: SNB-19 CNS

CCCCNC(=S)Nc1nc(C(=O)NNC(=S)NC2CCCCC2)cs1
TGI [1]: > 100 µM
TGI [2]: > 100 µM
TGI [3]: 35.4 µM
TGI [4]: > 100 µM
TGI [5]: > 100 µM
TGI [6]: > 100 µM
TGI [7]: > 100 µM
TGI [8]: > 100 µM
TGI [9]: > 100 µM
TGI [10]: > 100 µM
TGI [11]: > 100 µM
TGI [12]: > 100 µM
TGI [13]: > 100 µM
TGI [14]: > 100 µM
TGI [15]: > 100 µM
TGI [16]: > 100 µM
TGI [17]: > 100 µM
TGI [18]: > 100 µM
TGI [19]: > 100 µM
TGI [20]: > 100 µM
TGI [21]: > 100 µM
TGI [22]: > 100 µM
TGI [23]: > 100 µM
TGI [24]: > 100 µM
TGI [25]: > 100 µM
TGI [26]: > 100 µM
TGI [27]: > 100 µM
TGI [28]: > 100 µM
TGI [29]: > 100 µM
TGI [30]: > 100 µM
TGI [31]: > 100 µM
TGI [32]: > 100 µM
TGI [33]: > 100 µM
TGI [34]: > 100 µM
TGI [35]: > 100 µM
TGI [36]: > 100 µM
TGI [37]: > 100 µM
TGI [38]: > 100 µM
TGI [39]: > 100 µM
TGI [40]: > 100 µM
TGI [41]: > 100 µM
TGI [42]: > 100 µM
TGI [43]: > 100 µM
TGI [44]: > 100 µM
TGI [45]: > 100 µM
TGI [46]: > 100 µM
TGI [47]: > 100 µM
TGI [48]: > 100 µM
TGI [49]: > 100 µM
TGI [50]: > 100 µM
TGI [51]: > 100 µM

COc1ccc(/C(C#N)=C/c2ccc(OC)c(OC)c2)cc1
TGI [1]: > 100 µM
TGI [2]: > 100 µM
TGI [4]: > 100 µM
TGI [5]: > 100 µM
TGI [6]: > 100 µM
TGI [52]: > 100 µM
TGI [53]: > 100 µM
TGI [7]: > 100 µM
TGI [54]: > 100 µM
TGI [8]: > 100 µM
TGI [9]: > 100 µM
TGI [10]: > 100 µM
TGI [11]: > 100 µM
TGI [55]: > 100 µM
TGI [12]: > 100 µM
TGI [13]: > 100 µM
TGI [56]: > 100 µM
TGI [57]: > 100 µM
TGI [14]: > 100 µM
TGI [15]: > 100 µM
TGI [16]: > 100 µM
TGI [17]: > 100 µM
TGI [18]: > 100 µM
TGI [19]: > 100 µM
TGI [20]: > 100 µM
TGI [58]: > 100 µM
TGI [21]: > 100 µM
TGI [22]: > 100 µM
TGI [23]: > 100 µM
TGI [24]: > 100 µM
TGI [25]: > 100 µM
TGI [26]: > 100 µM
TGI [27]: > 100 µM
TGI [28]: > 100 µM
TGI [29]: > 100 µM
TGI [30]: > 100 µM
TGI [31]: > 100 µM
TGI [32]: > 100 µM
TGI [33]: > 100 µM
TGI [35]: > 100 µM
TGI [36]: > 100 µM
TGI [37]: > 100 µM
TGI [38]: > 100 µM
TGI [39]: > 100 µM
TGI [40]: > 100 µM
TGI [59]: > 100 µM
TGI [41]: > 100 µM
TGI [42]: > 100 µM
TGI [43]: > 100 µM
TGI [44]: > 100 µM
TGI [45]: > 100 µM
TGI [46]: > 100 µM
TGI [47]: > 100 µM
TGI [48]: > 100 µM
TGI [49]: > 100 µM
TGI [50]: > 100 µM
TGI [51]: > 100 µM
